# Publication PMC11823594, “Durlobactam in combination with β-lactams to combat Mycobacterium abscessus” (Antimicrobial Agents and Chemotherapy, 2024)
# Like-named read-outs stand apart in the source and are kept apart here.
# What was measured:
# Mab ATCC 19977 strain = assay: MIC testing (CLSI, Middlebrook 7H9 broth); assay type: cell-based, Mycobacterium abscessus; settings: for MIC: Mycobacteroides abscessus, read-out: MIC, alone
# [1] = Predicted average unbound steady-state plasma concentration (fCss,avg) at clinically relevant doses; parameters: species or system human
# LDT2 [2] = biological target: T1, LDT2 (Mycobacterium abscessus, UniProt B1MMQ4); assay: Circular dichroism spectroscopy; assay type: binding; settings: 5 µM LDT2, 10 µM β-lactam, 2 h, 25°C
# Procedure: The circular dichroism spectra of LDT2 (5 µM in PBS buffer) were recorded on a circular dichroism spectrometer with a 2 mm path length, both in the absence and presence of 10 µM imipenem, ceftaroline, sulopenem, and cefuroxime at 25°C. To ensure the detection of conformational changes, LDT2 and the β-lactams were incubated at room temperature for 2 h. The contribution of each β-lactam alone was subtracted in each case.
# PBP-lipo [3] = biological target: T2, PBP-lipo (Mycobacteroides abscessus, UniProt B1MDC3); assay: Bocillin-FL binding assay; settings: 2 h incubation, 1:10 molar ratio
# T2 construct: made in house; host or cells: Escherichia coli BL21 (DE3)
# Procedure: To analyze the binding of PBP-lipo with β-lactams or BLIs, purified PBP-lipo (4 µg) was incubated with β-lactams or BLIs at a 1:10 molar ratio in a buffer containing 10 mM sodium phosphate (pH 7.4) and 150 mM NaCl. The incubation was carried out for 2 h at room temperature. After the initial incubation, 1 µM Bocillin FL was added to the reaction mixture. The incubation was continued for an additional 3–4 h at 37°C. After incubation, the samples were boiled to denature the proteins. The samples were then subjected to SDS-PAGE. The PBP-lipo:Bocillin complexes were visualized by fluorescence analysis at a wavelength of 488 nm using an Azure 300 gel imaging system. The intensity of the PBP-lipo:Bocillin complex bands was analyzed using GelAnalyzer software. The intensity of the band for PBP-lipo alone (without β-lactams) was set to 1 as the highest intensity. The intensity of each band for PBP-lipo incubated with β-lactams was then normalized by dividing by the intensity of the band for PBP-lipo alone.
# LDT1 = LDT1 (Mycobacterium abscessus, UniProt B1MDC1); assay: Steady-state kinetics with nitrocefin (Ki,app); assay type: biochemical; settings: for Ki: nitrocefin at 5 × Km, read-out: Ki,app LDT1 (converted)
# Procedure: (§1) Steady-state kinetic studies were conducted using purified LDTs and PBPs (LDT1-5, PBP B, PBP-lipo, and DDC) as previously described ([20]). The assays were performed using a BioTek Synergy2 multimode reader in conjunction with Gen5 analysis software. Increasing concentrations of NCF (Δε482 = 17,400 M^⁻¹ cm^⁻¹) were used, while fixed concentrations of the LDTs and PBPs were monitored for changes in absorbance at 482 nm over a time period of 0 to 10 min. To determine reaction velocities, a 0.25 cm path length was employed. The steady-state kinetic parameters (Vmax, kcat, and Km) were obtained by fitting the data to the Henri-Michaelis-Menten equation using a nonlinear least-squares fit in Origin 8.1 software (OriginLab, Northampton, MA). The reaction rate (v) at a given substrate concentration ([S]) was calculated according to the following equations: […]
# (§2) To determine the apparent inhibition constants (Ki,app) for β-lactams and BLIs, the following experimental condition was employed: NCF as a substrate at a concentration of 5 × Km, LDT/ PBP enzymes with fixed concentration, and β-lactams and BLIs with various concentrations. Changes in absorbance at 482 nm were measured over a period of 0–30 min for each concentration of β-lactams and BLIs. Data were linearized using a Dixon plot, plotting the inverse changes in absorbance (1/ΔA) against the concentrations of β-lactams and BLIs. The observed Ki,app was determined directly from the Dixon plot, and these values were corrected for substrate concentration and affinity for the LDT using the following equation:
# (§3) Ki,app=observed Ki,app/1+[NCF]/Km NCF
# LDT4 = LDT4 (Mycobacterium abscessus, UniProt B1MKW1); assay: Steady-state kinetics with nitrocefin (Ki,app); assay type: biochemical; settings: in parentheses in Table 3
# Procedure: as §1, §2, §3
# LDT2 [4] = biological target: T1, LDT2; assay: Steady-state kinetics with nitrocefin (Ki,app); assay type: biochemical; settings: for Ki: nitrocefin at 5 × Km, read-out: Ki,app LDT2 (converted)
# Procedure: as §1, §2, §3
# PBP-lipo [5] = biological target: T2, PBP-lipo; assay: Steady-state kinetics with nitrocefin (Ki,app); assay type: biochemical
# Procedure: as §1, §2, §3
# BlaMab = BlaMab (Mycobacterium abscessus, UniProt B1MCI3); assay: Ki,app for the β-lactamase; assay type: biochemical
# DDC = DDC (Mycobacteroides abscessus, UniProt B1MDJ1); assay: Steady-state kinetics with nitrocefin (Ki,app); assay type: biochemical; settings: in parentheses in Table 3;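 also: Parenthesised value is the fCss,avg to Ki,app ratio where above 1 means target likely hit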
# Procedure: as §1, with “Increasing concentrations of NCF (Δε482 = 17,400 M^⁻¹ cm^⁻¹) were used, while fixed concentrations of the LDTs and PBPs were monitored for changes in absorbance at 482 nm over a time period of 0 to 10 min.” left out
# (§4) Changes in absorbance at 482 nm were measured over a period of 0–30 min for each concentration of β-lactams and BLIs. Data were linearized using a Dixon plot, plotting the inverse changes in absorbance (1/ΔA) against the concentrations of β-lactams and BLIs. The observed Ki,app was determined directly from the Dixon plot, and these values were corrected for substrate concentration and affinity for the LDT using the following equation:
# as §3
# LDT5 = LDT5 (Mycobacterium abscessus, UniProt B1MM58); assay: Steady-state kinetics with nitrocefin (Ki,app); assay type: biochemical; settings: in parentheses in Table 3
# Procedure: as §1, with “Increasing concentrations of NCF (Δε482 = 17,400 M^⁻¹ cm^⁻¹) were used, while fixed concentrations of the LDTs and PBPs were monitored for changes in absorbance at 482 nm over a time period of 0 to 10 min.” left out
# as §4, §3
# PBP B = PBP B (Mycobacterium abscessus, UniProt B1MP31); assay: Steady-state kinetics with nitrocefin (Ki,app); assay type: biochemical;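 as to Ratio of fCss,avg to Ki,app, PBP B: Parenthesised value is the fCss,avg to Ki,app ratio where above 1 means target likely hit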
# Procedure: as §1, with “Increasing concentrations of NCF (Δε482 = 17,400 M^⁻¹ cm^⁻¹) were used, while fixed concentrations of the LDTs and PBPs were monitored for changes in absorbance at 482 nm over a time period of 0 to 10 min.” left out
# as §4, §3
# LDT3 = LDT3 (Mycobacterium abscessus, UniProt B1MHQ4); assay: Mass spectrometry of covalent adduct formation; assay type: binding; settings: protein:drug 1:20, 2 h; mass accuracy ±5 Da; (−) = no change
# Procedure: Truncated sequences of LDT1-5, DDC, PBP B, and PBP-lipo (Δ1–41) were generated by Celtek Biosciences and cloned into the pET28(a) + vector with a tobacco etch virus (TEV) protease cleavage site before the start codon. Clones were transformed into Escherichia coli BL21 (DE3) and grown to an OD600 of 0.6–0.8. Protein expression was induced with 0.25 mM isopropyl β-d-1-thiogalactopyranoside (IPTG) and incubated for 18 h at 18°C. Cell pellets were collected and stored at −20°C overnight, then resuspended in a buffer containing 50 mM Tris (pH 8.0), 400 mM sodium chloride, and 1 mM Tris (2-carboxyethyl) phosphine hydrochloride (TCEP), followed by sonication and centrifugation. The supernatant was purified using a His Prep FF 16/10 column (GE Healthcare) and eluted with 500 mM imidazole. Eluted protein was dialyzed overnight at 4°C in a buffer with 50 mM Tris (pH 8.0), 150 mM sodium chloride, and 0.5 mM TCEP in the presence of His-tagged TEV protease. To remove the His tag, the mixture was passed over the His Prep FF 16/10 column again.
# The purified proteins listed above were incubated at room temperature with β-lactams or BLIs at a molar ratio of 1:20 for 2 h. The reactions were then quenched with acetonitrile and diluted to 1 mL with 0.1% formic acid in water. Samples were analyzed using a quadrupole time-of-flight (Q-TOF) Waters Synapt-G2-Si electrospray ionization mass spectrometer (ESI-MS) and a Waters Acquity H class ultra-performance liquid chromatography (UPLC) system, equipped with a BEH C18 1.7 µm column (2.1 × 50 mm). The MS was tuned with the following settings: capillary voltage set at 3 kV, sampling cone at 35 V, source offset at 35, source temperature of 100°C, desolvation temperature of 500°C, cone gas flow rate at 100 L/h, desolvation gas flow rate at 800 L/h, and nebulizer set at 6.0. The mobile phases consisted of 0.1% formic acid in water and 0.1% formic acid in 100% acetonitrile, with gradient elution from 10% to 90% of […] over 11 min. The system’s mass accuracy was ±5 Da.
# Mab ATCC 19977 = assay: Static drug-concentration time-kill (SCTK) assay with CART analysis; assay type: cell-based, Mycobacterium abscessus; settings: clinically achievable concentrations, over 10 days; AVI 4 mg/L; DUR 12 mg/L + SUL 7 mg/L
# [6] = test system: Mycobacterium abscessus ATCC 19977 strain; assay: Morphological changes by flow cytometry and confocal microscopy; assay type: cell-based; settings: clinically relevant unbound concentrations (fCss,ave), 24 h
# Procedure: Flow cytometry was employed to evaluate morphological changes in individual bacterial cells following PBP-lipo inactivation after 24 h of β-lactam treatment. The bacterial cells were stained using the BacLight kit L7012 (Thermo Fisher Scientific, Waltham, MA), containing SYTO 9 and propidium iodide (PI). Analysis was performed using a CytoFLEX flow cytometer (Beckman Coulter, CA), with data processed using CytExpert software.
# Bacterial morphological changes resulting from PBP-lipo inactivation were investigated using an ImageXpress Micro Confocal Microscope (Molecular Devices, CA). The staining procedures applied to the samples mirrored those used for flow cytometry. Stained bacterial cells were placed in optically clear flat-bottom 96-well plates, and observations were conducted at 60× magnification. Cell length measurements were obtained through automated image analysis using MetaXpress 6 software.
# [7] = ATCC19977, Mab ATCC 19977, no BLI added, 30°C, 48 h
# Sequence of PBP B (B1MP31 entry or part of it): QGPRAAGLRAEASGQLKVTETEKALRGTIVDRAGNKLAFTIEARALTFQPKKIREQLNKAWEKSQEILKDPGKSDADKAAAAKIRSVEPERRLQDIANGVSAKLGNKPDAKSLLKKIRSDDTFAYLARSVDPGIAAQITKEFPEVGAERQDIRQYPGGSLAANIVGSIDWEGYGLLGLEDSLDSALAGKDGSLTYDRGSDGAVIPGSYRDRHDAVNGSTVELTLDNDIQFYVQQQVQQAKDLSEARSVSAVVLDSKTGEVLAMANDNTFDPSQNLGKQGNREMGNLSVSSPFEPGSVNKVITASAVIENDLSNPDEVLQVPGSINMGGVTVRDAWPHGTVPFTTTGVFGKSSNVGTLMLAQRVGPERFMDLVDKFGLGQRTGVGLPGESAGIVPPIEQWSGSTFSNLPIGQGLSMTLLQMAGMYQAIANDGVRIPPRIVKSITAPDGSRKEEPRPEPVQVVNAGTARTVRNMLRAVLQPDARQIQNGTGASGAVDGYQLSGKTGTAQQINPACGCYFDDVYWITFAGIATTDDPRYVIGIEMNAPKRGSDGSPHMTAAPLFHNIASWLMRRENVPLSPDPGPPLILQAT
# Sequence of LDT1 (B1MDC1 entry or part of it): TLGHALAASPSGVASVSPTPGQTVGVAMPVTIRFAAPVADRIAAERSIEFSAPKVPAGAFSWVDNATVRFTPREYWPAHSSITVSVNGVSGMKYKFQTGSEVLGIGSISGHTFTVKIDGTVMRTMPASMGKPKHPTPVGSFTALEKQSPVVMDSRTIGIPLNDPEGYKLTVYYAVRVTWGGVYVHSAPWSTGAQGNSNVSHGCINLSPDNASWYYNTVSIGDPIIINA
# T1 sequence (B1MMQ4 entry or part of it): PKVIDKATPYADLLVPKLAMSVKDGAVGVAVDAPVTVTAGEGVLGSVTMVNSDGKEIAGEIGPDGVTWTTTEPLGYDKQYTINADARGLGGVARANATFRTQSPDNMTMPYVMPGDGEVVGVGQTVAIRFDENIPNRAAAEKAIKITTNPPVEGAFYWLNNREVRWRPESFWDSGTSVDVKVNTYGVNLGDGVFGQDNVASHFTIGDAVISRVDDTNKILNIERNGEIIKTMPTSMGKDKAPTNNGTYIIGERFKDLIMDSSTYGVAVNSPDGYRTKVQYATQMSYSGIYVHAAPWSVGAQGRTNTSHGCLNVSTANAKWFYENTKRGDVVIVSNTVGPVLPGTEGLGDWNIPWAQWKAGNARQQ
# T2 sequence (B1MDC3 entry or part of it): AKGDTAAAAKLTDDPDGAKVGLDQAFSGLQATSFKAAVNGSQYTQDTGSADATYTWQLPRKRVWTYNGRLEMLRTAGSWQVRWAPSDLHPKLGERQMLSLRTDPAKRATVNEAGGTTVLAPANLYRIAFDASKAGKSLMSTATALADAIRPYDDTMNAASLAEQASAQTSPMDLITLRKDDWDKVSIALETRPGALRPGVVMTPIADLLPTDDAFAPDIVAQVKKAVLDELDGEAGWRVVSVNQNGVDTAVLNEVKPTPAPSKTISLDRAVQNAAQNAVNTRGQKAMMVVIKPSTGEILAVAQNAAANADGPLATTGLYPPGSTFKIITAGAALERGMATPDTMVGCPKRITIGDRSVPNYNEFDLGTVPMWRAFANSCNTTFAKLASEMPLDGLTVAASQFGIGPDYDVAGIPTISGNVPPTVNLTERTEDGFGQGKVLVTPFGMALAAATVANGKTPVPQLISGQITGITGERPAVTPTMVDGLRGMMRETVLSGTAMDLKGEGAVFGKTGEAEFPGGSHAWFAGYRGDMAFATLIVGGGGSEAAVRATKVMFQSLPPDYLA
# Sequence of LDT5 (B1MM58 entry or part of it): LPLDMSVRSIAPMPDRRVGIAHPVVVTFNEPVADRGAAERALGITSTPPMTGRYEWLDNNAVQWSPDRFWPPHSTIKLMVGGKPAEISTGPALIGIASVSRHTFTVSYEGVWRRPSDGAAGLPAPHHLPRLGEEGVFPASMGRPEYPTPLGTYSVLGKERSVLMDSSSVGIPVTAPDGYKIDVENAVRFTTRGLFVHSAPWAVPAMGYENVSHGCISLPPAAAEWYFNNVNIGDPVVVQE
# Sequence of DDC (B1MDJ1 entry or part of it): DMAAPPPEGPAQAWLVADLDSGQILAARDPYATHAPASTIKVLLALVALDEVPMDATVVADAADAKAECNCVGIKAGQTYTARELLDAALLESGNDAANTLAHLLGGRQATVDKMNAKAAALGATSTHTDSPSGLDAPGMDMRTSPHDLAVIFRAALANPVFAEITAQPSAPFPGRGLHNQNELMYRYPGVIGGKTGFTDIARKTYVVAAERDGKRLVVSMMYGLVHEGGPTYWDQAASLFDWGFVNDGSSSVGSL
# Sequence of LDT4 (B1MKW1 entry or part of it): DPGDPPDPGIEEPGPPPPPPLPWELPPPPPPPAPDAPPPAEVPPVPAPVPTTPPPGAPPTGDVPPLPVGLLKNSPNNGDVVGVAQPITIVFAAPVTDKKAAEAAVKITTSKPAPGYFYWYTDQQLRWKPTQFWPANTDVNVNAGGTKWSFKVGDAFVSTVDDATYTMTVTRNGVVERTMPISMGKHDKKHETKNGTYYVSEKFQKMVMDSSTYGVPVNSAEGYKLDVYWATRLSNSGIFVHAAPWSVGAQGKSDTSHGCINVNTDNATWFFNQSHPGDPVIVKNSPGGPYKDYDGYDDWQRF
# Sequence of LDT3 (B1MHQ4 entry or part of it): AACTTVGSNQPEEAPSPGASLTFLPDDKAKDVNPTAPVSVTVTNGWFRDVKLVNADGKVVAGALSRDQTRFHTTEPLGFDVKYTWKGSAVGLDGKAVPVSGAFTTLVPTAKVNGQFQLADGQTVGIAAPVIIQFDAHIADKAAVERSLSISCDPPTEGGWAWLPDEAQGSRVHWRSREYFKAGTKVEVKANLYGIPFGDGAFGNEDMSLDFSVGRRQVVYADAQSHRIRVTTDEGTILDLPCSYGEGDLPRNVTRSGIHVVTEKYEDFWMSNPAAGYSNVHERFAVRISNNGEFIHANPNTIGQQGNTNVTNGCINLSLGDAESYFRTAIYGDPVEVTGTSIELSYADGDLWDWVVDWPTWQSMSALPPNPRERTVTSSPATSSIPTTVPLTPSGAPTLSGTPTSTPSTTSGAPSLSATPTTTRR
# Sequence of BlaMab (B1MCI3 entry or part of it): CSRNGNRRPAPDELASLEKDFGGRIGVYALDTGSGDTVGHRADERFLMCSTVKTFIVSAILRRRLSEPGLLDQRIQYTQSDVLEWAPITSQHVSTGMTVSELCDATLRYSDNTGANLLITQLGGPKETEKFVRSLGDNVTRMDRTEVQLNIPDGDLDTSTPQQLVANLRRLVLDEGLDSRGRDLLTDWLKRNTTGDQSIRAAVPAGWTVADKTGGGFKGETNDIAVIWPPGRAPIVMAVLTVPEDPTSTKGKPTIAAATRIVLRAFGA
structure (smiles),measurement,setting,value
"NCC[C@H](O)C(=O)N[C@@H]1C[C@H](N)[C@@H](O[C@H]2O[C@H](CN)[C@@H](O)[C@H](O)[C@H]2O)[C@H](O)[C@H]1O[C@H]1O[C@H](CO)[C@@H](O)[C@H](N)[C@H]1O [Amikacin, amikacin]",MIC,Mab ATCC 19977 strain; [7],16 µg/mL
same,Average unbound concentration at steady-state,[1]; amikacin doses between 20 and 30 mg/kg,12 mg/L
"CO[C@@]1(NC(=O)Cc2cccs2)C(=O)N2C(C(=O)O)=C(COC(N)=O)CS[C@@H]21 [Cefoxitin, cefoxitin]",MIC,Mab ATCC 19977 strain; [7],16 µg/mL
"CCO/N=C(\C(=O)N[C@@H]1C(=O)N2C(C(=O)[O-])=C(Sc3nc(-c4cc[n+](C)cc4)cs3)CS[C@H]12)c1nsc(N)n1 [Ceftaroline, ceftaroline]",MIC,"Mab ATCC 19977 strain; ATCC19977, 48 h",16 µg/mL
same,"MIC, + AVI (4 mg/L)",Mab ATCC 19977 strain; fixed avibactam 4 mg/L,1 to 2 µg/mL
same,"MIC, + DUR + SUL (1 mg/L)",Mab ATCC 19977 strain; fixed durlobactam 1 mg/L + sulbactam 1 mg/L,2 µg/mL
same,Conformational change of LDT2 (CD spectrum),LDT2 [2],altered its secondary structure
same,Binding to PBP-lipo (Bocillin-FL competition),PBP-lipo [3],demonstrated binding to PBP-lipo
same,"Ratio of fCss,avg to Ki,app, LDT1",LDT1; in parentheses in Table 3,14
same,Ki,LDT1,0.827 µM
same,"Ratio of fCss,avg to Ki,app, LDT4",LDT4,0.1
same,"Ratio of fCss,avg to Ki,app, LDT2",LDT2 [4]; in parentheses in Table 3,10
same,Ki,LDT2 [4],1.16 µM
same,Ki,PBP-lipo [5],23.2 µM
same,"Ratio of fCss,avg to Ki,app, PBP-lipo",PBP-lipo [5]; in parentheses in Table 3,0.5
same,Ki,BlaMab,681 µM
same,"fCss,avg","[1]; median unbound average steady-state plasma concentration, continuous infusion, daily dose DUR 4,000, AVI 1,500, IPM 4,000, CFT 1,800, AMX 1,500, SULO 1,000, CXM 1,500, SUL 4,000, TBP 1,800 mg",7 mg/L
same,"Ratio of fCss,avg to Ki,app, DDC",DDC,0.3
same,"Ratio of fCss,avg to Ki,app, LDT5",LDT5,0.1
same,Ki,PBP B,2.32 µM
same,"Ratio of fCss,avg to Ki,app, PBP B",PBP B; in parentheses in Table 3,5
same,"Observed MW (+ change in mw), LDT3 (44,795)",LDT3,"44,794 (−) Da"
"CC[C@H]1OC(=O)[C@H](C)[C@@H](O[C@H]2C[C@@](C)(OC)[C@@H](O)[C@H](C)O2)[C@H](C)[C@@H](O[C@@H]2O[C@H](C)C[C@H](N(C)C)[C@H]2O)[C@](C)(OC)C[C@@H](C)C(=O)[C@H](C)[C@@H](O)[C@]1(C)O [Clarithromycin, clarithromycin]",MIC,Mab ATCC 19977 strain; [7],8 µg/mL
same,Steady-state average unbound concentration,[1]; daily dose of 1000 mg,0.3 mg/L
"CC1(C)[C@H](C(=O)O)N2C(=O)C[C@H]2S1(=O)=O [Sulbactam, sulbactam]",Bacterial killing (log10 reduction) in time-kill,Mab ATCC 19977,no bacterial killing
same,Ki,LDT1,643 µM
same,Ki,LDT2 [4],0.0857 µM
same,Ki,PBP B,55.7 µM
same,Morphological change of Mab cells,[6],did not induce noticeable morphological changes
